{"source": "patent US7026489B2", "about": "“Ketol fatty acid derivative and plant growth regulating agents” (Shiseido Company, Ltd., priority 2000, dated 2006)", "key": {"[1]": {"tested_on": "morning glory (Pharbitis nil)", "assay": "Flower bud formation promoting activity of ketol fatty acid derivative II in morning glory (Example 6)", "format": "in vivo", "details": "for flower bud formation promoting effect (number of flower buds per plant, % of control): sprayed at 1 μM onto cotyledons, 14 hours dark, counted on day 16, compound (4) at 1 μM and 100 μM, FIG. 6", "description": "Seeds (9 g) of morning glory (variety name: Murasaki) were treated with concentrated sulfuric acid for 20 minutes, and then left to stand overnight under running water. Subsequently, the treated seeds were placed on wet sea sand for 24 hours, hilum side up, to thereby form roots. The seeds having roots were planted in sea sand to a depth of 1.5 cm to 2.0 cm, followed by culturing under continuous light (for approximately 5 days). The whole plants of the morning glory which had put forth leaves through the culture were transferred to a culture solution [KNO3 (250 mg), NH4NO3 (250 mg), KH2PO4 (250 mg), MgSO4.7H2O (250 mg), MnSO4.4H2O (1 mg), Fe-citrate n-hydrate (6 mg), H3BO3 (2 mg), CuSO4.5H2O (0.1 mg), ZnSO4.7H2O (0.2 mg), Na2MoO4.2H2O (0.2 mg), Ca(H2PO4)2.2H2O (250 mg)/distilled water (1,000 mL)]. While ketol fatty acid derivative (9) of the invention, which was obtained in the above Example 5, or test compounds such as Compound (4) was directly sprayed onto the cotyledons of the above morning glory plants grown in the culture system, the morning glory plants were subjected to treatment in the dark, then raised under the application of continuous light at 26° C. for 16 days. On day 16, the number of flower buds of the morning glory plants was counted (8 plants/group). The treatment in the dark was performed overnight (for 14 hours). In FIG. 6, along the X axis, (a) represents a control (a group of plants sprayed with distilled water), (b) represents a group of plants sprayed with ketol fatty acid derivative (9) (1 μM), (c) represents a group of plants sprayed with compound (4) (1 μM) and L-isoleusine (1 μM), (d) represents a group of plants sprayed with L-isoleusine (1 μM), (e) represents a group of plants sprayed with compound (4) (1 μM), and (f) represents a group of plants sprayed with compound (4) (100 μM). The Y axis represents flower bud formation promoting activity (shown as the percentage of each group to the control group (=100%) in terms of the number of flower buds per plant). […]"}, "a broad range of plants": {"tested_on": "a broad range of plants", "details": "alone or in combination with norepinephrine; cited from earlier work"}, "[2]": {"tested_on": "morning glory (Pharbitis nil)", "assay": "Flower bud formation promoting activity of compounds (4) and (5) in morning glory (Example 2)", "format": "in vivo", "details": "sprayed onto cotyledons, 14 hours dark, counted on day 14; FIG. 3", "description": "Seeds (9 g) of morning glory (variety name: Murasaki) were treated with concentrated sulfuric acid for 20 minutes, and then left to stand overnight under running water. Subsequently, the treated seeds were placed on wet sea sand for 24 hours, hilum side up, to thereby form roots. The seeds having roots were planted in sea sand to a depth of 1.5 cm to 2.0 cm, followed by culturing under continuous light (for approximately 5 days). The whole plants of the morning glory which had put forth leaves through the culture were transferred to a culture solution [KNO3 (250 mg), NH4NO3 (250 mg), KH2PO4 (250 mg), MgSO4.7H2O (250 mg), MnSO4.4H2O (1 mg), Fe-citrate n-hydrate (6 mg), H3BO3 (2 mg), CuSO4.5H2O (0.1 mg), ZnSO4.7H2O (0.2 mg), Na2MoO4.2H2O (0.2 mg), Ca(H2PO4)2.2H2O (250 mg)/distilled water (1,000 mL)]. Compound (4) or compound (5) was sprayed onto the cotyledons of the above morning glory plants at a spray volume of 2 mL per eight plants. The morning glory plants were subjected to treatment in the dark (14 hours), then raised under the application of continuous light at 26° C. for 14 days. On day 14, the number of flower buds of the morning glory plants was counted. As a control, distilled water was sprayed onto a group of plants. Compound (4) was sprayed at a concentration of 100 μM, whereas compound (5) was sprayed at concentrations of 0.001 μM to 100 μM."}}}
{"smiles": "CC[C@H](C)[C@H](N)C(=O)O", "note": "[L-isoleucine, reference compound]", "values": [{"measurement": "flower bud formation promoting effect (number of flower buds per plant, % of control)", "setting": "[1]", "value": "not observed"}]}
{"smiles": "CC/C=C\\C/C=C\\CC(=O)C(O)CCCCCCCC(=O)O", "note": "(centres unmarked) [compound (4), 9-hydroxy-10-oxo-12(Z),15(Z)-octadecadienoic acid]", "values": [{"measurement": "flower bud formation promoting effect", "setting": "a broad range of plants", "value": "exhibit flower bud formation promoting effect"}]}
{"smiles": "CC/C=C\\C[C@H]1[C@H](CC(=O)[C@H](O)CCCCCCCC(=O)O)O[C@@]2(O)CC13C(=CC2=O)NC[C@H]3O", "note": "[compound (5), (9R)-11-{(2′S,8′S,10′S,11′R)-2′,8′-dihydroxy-7′-oxo-11′-[(Z)-2-pentenyl]-9′-oxa-4′-azatricyclo[6.3.1.0^1.5]dodec-5′-en-10′-yl}-9-hydroxy-10-oxoundecanoic Acid]", "values": [{"measurement": "concentration exhibiting the same level of flower bud formation promoting activity as 100 μM compound (4)", "setting": "[2]", "value": 0.01, "unit": "µM"}]}
{"smiles": "CC/C=C\\C/C=C\\CC(=O)C(O)CCCCCCCC(=O)NC(C(=O)O)C(C)CC", "note": "[ketol fatty acid derivative (9), N-[9-hydroxy-10-oxo-12(Z),15(Z)-octadecadienoyl]-L-isoleucine]", "values": [{"measurement": "flower bud formation promoting effect (number of flower buds per plant, % of control)", "setting": "[1]", "value": "equal or higher flower bud formation promoting effect as compared with compound (4)"}, {"measurement": "optimum administration concentration for flower bud formation promoting activity", "setting": "[1]; sprayed at 0.1 to 100 μM, FIG. 7", "value": "approximately 1 μM"}]}
